Laboratory results as given in US20060069038A1, “Irreversible caspase-3 inhibitors as active site probes” (priority 2003, published 2006).

Biological target: T1, caspase-3 (Homo sapiens, UniProt P42574)
T1 construct: endogenous in cells; host or cells: Jurkat cells, apoptosis induced with camptothecin
T1 sequence (P42574 29-175 limits assumed): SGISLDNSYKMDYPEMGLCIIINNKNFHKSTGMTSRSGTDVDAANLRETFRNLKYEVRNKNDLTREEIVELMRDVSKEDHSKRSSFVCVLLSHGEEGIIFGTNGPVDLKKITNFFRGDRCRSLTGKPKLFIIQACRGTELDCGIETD
T1 sequence (P42574 176-277 limits assumed): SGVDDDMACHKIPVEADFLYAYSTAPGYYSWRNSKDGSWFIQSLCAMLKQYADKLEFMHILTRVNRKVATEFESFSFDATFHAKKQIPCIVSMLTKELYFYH
Assay: Caspase-3 western blot on camptothecin-treated Jurkat cell extracts
Format: cell-based
Conditions: camptothecin-treated Jurkat cells, FIG. 4
Description: Jurkat cells (ATCC # TEB-152) were maintained in RPMI1640 supplemented with 10% FBS, 2 mM L-glutamine and antibiotics (penicillin and streptamycin). Apoptosis was induced on cells (1 million cells/ml) that had been starved for 36 hours in CytoSf4 media (Kemp technologies) by addition of camptothecin (Sigma; 3 μg/ml). NT2 cells (ATCC 3813555) were cultured in DMEM+10% FBS+2 mM L-glutamine and antibiotics. Apoptosis induced with camptothecin (5 μg/ml) in culture media.
Denatured protein extracts in 1× Laemli buffer were resolved through a 18% acrylamide gradient SDS-PAGE gel (Invitrogen) at 30 mA in Tris-Glycine buffer. Samples labeled with [^125I]-M808 were migrated until the dye front reached 0.5 cm above the end of the gel, and acrylamide 1 cm above the dye front was cut out to remove all free [^125I]-M808 and reduce background. The gels were fixed for 45 minutes in a 40% Methanol-10% Acetic acid solution and dried for 90 min at 80° C. before exposure on MS Kodak film with MS intensifying screens. For Western blotting, proteins were transferred onto a […] nitrocellulose membrane (Invitrogen) in Tris-Glycine-20% methanol buffer at 40V for 2 hours. Non-specific protein binding was minimized by incubating the membranes for 1 hour in blocking buffer (5% non-fat milk/TBS/0.1% Tween-20). […] Densitometry was performed using a BioRad instrument and QuantityOne software. […]

For `COc1ccc(-c2nc(C)no2)cc1CC(=O)N[C@H](C(=O)N[C@@H](CC(=O)O)C(=O)CSCc1ccccc1)C(C)C` [Example M791, (3S)-5-(benzylthio)-3-[(N-{[2-methoxy-5-(3-methyl-1,2,4-oxadiazol-5-yl)phenyl]acetyl}-L-valyl)amino]4-oxopentanoic acid], the “effect on caspase-3 processing (western blot)” value was “prevents the auto-processing of p20 caspase 3 into p19 and p17”.
